Patent publication US9493446B2, “Orexin receptor antagonists which are [ortho bi-(hetero-)aryl]-[2-(meta bi-(hetero-)aryl)-pyrrolidin-1-yl]-methanone derivatives” (Actelion Pharmaceuticals Ltd, priority 2012, dated 2016)
Like-named read-outs stand apart in the source and are kept apart here.

Experiments:
human orexin-2 receptor = human orexin-2 receptor (Homo sapiens (Human), UniProt O43614); assay: Intracellular calcium measurement (FLIPR), CHO cells expressing human orexin-2 receptor, 3 nM orexin-A; assay type: cell-based; conditions: read-out: IC50 OX2
How it was run: (§1)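 HBSS buffer with 0.1% BSA, NaHCO3 and 20 mM HEPES carries both compounds and agonist. Dye: fluo-4 AM (3 μM) with 5 mM probenecid. Compound exposure 120 min; peak signal scored against uninhibited orexin-A response.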

orexin-1 = orexin-1 (Homo sapiens (Human), UniProt O43613); assay: Intracellular calcium measurement (FLIPR), CHO cells expressing human orexin-1 receptor, 3 nM orexin-A; assay type: cell-based; conditions: read-out: IC50 OX1
How it was run: as §1

[1] = CHO cells expressing human orexin-2 receptor, FLIPR, 3 nM orexin-A, geometric mean if determined several times
[2] = CHO cells expressing human orexin-1 receptor, FLIPR, 3 nM orexin-A, geometric mean if determined several times

Chain of orexin-1 (O43613 whole entry): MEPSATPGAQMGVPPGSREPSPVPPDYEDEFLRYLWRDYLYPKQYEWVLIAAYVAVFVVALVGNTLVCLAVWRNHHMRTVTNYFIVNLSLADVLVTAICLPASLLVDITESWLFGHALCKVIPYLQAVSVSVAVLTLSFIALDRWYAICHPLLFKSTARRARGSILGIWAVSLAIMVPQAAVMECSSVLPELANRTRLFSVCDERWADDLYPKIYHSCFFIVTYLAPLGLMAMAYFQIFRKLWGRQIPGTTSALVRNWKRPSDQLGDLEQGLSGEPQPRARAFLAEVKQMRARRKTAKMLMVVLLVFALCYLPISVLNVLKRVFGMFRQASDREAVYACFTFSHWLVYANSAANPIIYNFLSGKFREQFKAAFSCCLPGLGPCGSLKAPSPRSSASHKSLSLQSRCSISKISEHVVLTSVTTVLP
Chain of human orexin-2 receptor (O43614 whole entry): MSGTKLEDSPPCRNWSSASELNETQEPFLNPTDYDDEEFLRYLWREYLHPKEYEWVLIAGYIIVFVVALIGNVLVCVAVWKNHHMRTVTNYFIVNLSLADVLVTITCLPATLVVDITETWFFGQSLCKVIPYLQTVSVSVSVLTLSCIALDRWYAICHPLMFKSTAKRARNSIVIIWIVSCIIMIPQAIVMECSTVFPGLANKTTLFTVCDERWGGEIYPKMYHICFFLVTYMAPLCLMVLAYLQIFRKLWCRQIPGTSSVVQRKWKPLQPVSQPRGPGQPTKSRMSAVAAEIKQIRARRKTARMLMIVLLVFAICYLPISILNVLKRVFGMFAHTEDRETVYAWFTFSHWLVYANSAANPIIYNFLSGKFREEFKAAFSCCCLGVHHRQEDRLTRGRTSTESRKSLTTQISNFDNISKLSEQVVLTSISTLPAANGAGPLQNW

| IC50 (human orexin-2 receptor; [1]) [nM] | IC50 (orexin-1; [2]) [nM] | Compound | IC50 (human orexin-2 receptor) [nM] | IC50 (orexin-1) [nM] |
| --- | --- | --- | --- | --- |
| 1 | 2 | CCOc1ccccc1-c1cnc([C@@H]2CCCN2C(=O)c2ccc(C)cc2-n2nccn2)[nH]1 [compound 518, {(S)-2-[5-(2-Ethoxy-phenyl)-1H-imidazol-2-yl]-pyrrolidin-1-yl}-(4-methyl-2-[1,2,3]triazol-2-yl-phenyl)-methanone] | – | – |
| 536 | 1740 | COc1cccc(-c2nnc([C@@H]3CCCN3C(=O)c3cc(C)ccc3-n3nccn3)o2)c1 [Example 456, {(S)-2-[5-(3-Methoxy-phenyl)-[1,3,4]oxadiazol-2-yl]-pyrrolidin-1-yl}-(5-methyl-2-[1,2,3]triazol-2-yl-phenyl)-methanone] | – | – |
| 2 | 6 | Cc1ccc(C(=O)N2CCC[C@H]2c2ncc(-c3ccccc3OC(F)(F)F)[nH]2)c(-n2nccn2)c1 [compound 517, (4-Methyl-2-[1,2,3]triazol-2-yl-phenyl)-{(S)-2-[5-(2-trifluoromethoxy-phenyl)-1H-imidazol-2-yl]-pyrrolidin-1-yl}-methanone] | – | – |
| 4 | 22 | CCOc1ccccc1-c1noc([C@@H]2CCCN2C(=O)c2cc(C)ccc2-n2nccn2)n1 [compound 40, {(S)-2-[3-(2-Ethoxy-phenyl)-[1,2,4]oxadiazol-5-yl]-pyrrolidin-1-yl}-(5-methyl-2-[1,2,3]triazol-2-yl-phenyl)-methanone] | – | – |
| 163 | 1840 | COc1ccc(F)c(-c2noc([C@@H]3CCCN3C(=O)c3cc(C)ccc3-n3nccn3)n2)c1F [compound 69, {(S)-2-[3-(2,6-Difluoro-3-methoxy-phenyl)-[1,2,4]oxadiazol-5-yl]-pyrrolidin-1-yl}-(5-methyl-2-[1,2,3]triazol-2-yl-phenyl)-methanone] | – | – |
| 46 | 49 | COc1c(F)cccc1-c1nnc([C@@H]2CCCN2C(=O)c2cc(C)ccc2-n2nccn2)[nH]1 [compound 497, {(S)-2-[5-(3-Fluoro-2-methoxy-phenyl)-4H-[1,2,4]triazol-3-yl]-pyrrolidin-1-yl}-(5-methyl-2-[1,2,3]triazol-2-yl-phenyl)-methanone] | – | – |
| 22 | 8 | Cc1ccc(-n2nccn2)c(C(=O)N2CCC[C@H]2c2nc(-c3cccnc3OC(C)C)no2)c1 [compound 71, {(S)-2-[3-(2-Isopropoxy-pyridin-3-yl)-[1,2,4]oxadiazol-5-yl]-pyrrolidin-1-yl}-(5-methyl-2-[1,2,3]triazol-2-yl-phenyl)-methanone] | – | – |
| 20 | 225 | COc1cc(C(=O)N2CCC[C@H]2c2nc(-c3cccc(F)c3OC)no2)c(-n2nccn2)cc1OC [compound 208, (4,5-Dimethoxy-2-[1,2,3]triazol-2-yl-phenyl)-{(S)-2-[3-(3-fluoro-2-methoxy-phenyl)-[1,2,4]oxadiazol-5-yl]-pyrrolidin-1-yl}-methanone] | – | – |
| 117 | 493 | Cc1ccc(-n2nccn2)c(C(=O)N2CCC[C@H]2c2ncc(-c3ccccc3C(F)(F)F)[nH]2)c1 [compound 528, (5-Methyl-2-[1,2,3]triazol-2-yl-phenyl)-{(S)-2-[5-(2-trifluoromethyl-phenyl)-1H-imidazol-2-yl]-pyrrolidin-1-yl}-methanone] | – | – |

Second part, the compound before the results:

| Compound | IC50 (human orexin-2 receptor; [1]) [nM] | IC50 (orexin-1; [2]) [nM] | IC50 (human orexin-2 receptor) [nM] | IC50 (orexin-1) [nM] |
| --- | --- | --- | --- | --- |
| Cc1cccc(-c2scnc2C(=O)N2CCC[C@H]2c2nnc(-c3ccccc3OC(F)(F)F)[nH]2)c1 [compound 485, (5-m-Tolyl-thiazol-4-yl)-{(S)-2-[5-(2-trifluoromethoxy-phenyl)-4H-[1,2,4]triazol-3-yl]-pyrrolidin-1-yl}-methanone] | 1230 | 1300 | – | – |
| (4,5-Dimethyl-2-[1,2,3]triazol-2-yl-phenyl)-{(S)-2-[5-(2-trifluoromethoxy-phenyl)-[1,2,4]oxadiazol-3-yl]-pyrrolidin-1-yl}-methanone [Example 304] | 3 | 4 | – | – |
| CCOc1ccccc1-c1noc([C@@H]2CCCN2C(=O)c2cccc(C)c2-n2nccn2)n1 [compound 262, {(S)-2-[3-(2-Ethoxy-phenyl)-[1,2,4]oxadiazol-5-yl]-pyrrolidin-1-yl}-(3-methyl-2-[1,2,3]triazol-2-yl-phenyl)-methanone] | 145 | 1110 | – | – |
| O=C(c1cc(Cl)ccc1-n1nccn1)N1CCC[C@H]1c1nnc(-c2ccccc2OC(F)(F)F)[nH]1 [compound 504] | – | 104 | 5 | – |
| Cc1ccc(-n2nccn2)c(C(=O)N2CCC[C@H]2c2nc(-c3ccccc3)co2)c1 [Example 459, (5-Methyl-2-[1,2,3]triazol-2-yl-phenyl)-[(S)-2-(4-phenyl-oxazol-2-yl)-pyrrolidin-1-yl]-methanone] | 295 | 129 | – | – |
| Cc1nc(C(=O)N2CCC[C@H]2c2nnc(-c3ccccc3OC(F)(F)F)[nH]2)c(-c2ccccc2)s1 [compound 506, (2-Methyl-5-phenyl-thiazol-4-yl)-{(S)-2-[5-(2-trifluoromethoxy-phenyl)-4H-[1,2,4]triazol-3-yl]-pyrrolidin-1-yl}-methanone] | 116 | 171 | – | – |
| COc1cc(C(=O)N2CCC[C@H]2c2nc(-c3cccc(Cl)c3C)no2)c(-n2nccn2)cc1OC [compound 133] | 36 | 522 | – | – |
| Cc1ccc(-n2nccn2)c(C(=O)N2CCC[C@H]2c2cc(-c3cccc(Cl)c3C)no2)c1 [compound 424] | 4 | 8 | – | – |
| Cc1nc(C(=O)N2CCC[C@H]2c2nc(-c3cccc(Cl)c3C)no2)c(-c2cccc(F)c2)s1 [compound 123] | 111 | 133 | – | – |
| Cc1ccc(-c2ccccc2)c(C(=O)N2CCC[C@@]2(C)c2nnc(-c3cccc(Cl)c3C)[nH]2)c1 [compound 556] | 857 | 870 | – | – |
| COc1cc(C(=O)N2CCC[C@H]2c2nc(-c3cccc(F)c3OC)no2)c(-c2ncccn2)cc1C [compound 286, {(S)-2-[3-(3-Fluoro-2-methoxy-phenyl)-[1,2,4]oxadiazol-5-yl]-pyrrolidin-1-yl}-(5-methoxy-4-methyl-2-pyrimidin-2-yl-phenyl)-methanone] | 6 | 90 | – | – |
| COc1cc(C)cc(-c2nc([C@@H]3CCCN3C(=O)c3cc(OC)c(Cl)cc3-n3nccn3)no2)c1 [compound 352] | – | 19 | 4 | – |
| Cc1c(F)cccc1-c1nc([C@@H]2CCCN2C(=O)c2cc(Cl)ccc2-n2nccn2)no1 [compound 342] | – | 152 | 13 | – |
| CCOc1c(F)cccc1-c1noc([C@@H]2CCCN2C(=O)c2cc(Cl)c(C)cc2-n2nccn2)n1 [compound 300] | 10 | 14 | – | – |
| COc1c(F)cccc1-c1nc([C@@H]2CCCN2C(=O)c2cccc(Cl)c2-n2nccn2)no1 [compound 363] | 111 | 155 | – | – |
| O=C(c1cc(Cl)ccc1-n1nccn1)N1CCC[C@H]1c1nc(-c2ccccc2C(F)(F)F)no1 [compound 179] | 189 | – | – | 371 |
| COc1c(Cl)cccc1-c1nc([C@@H]2CCCN2C(=O)c2cc(C)c(C)cc2-n2nccn2)no1 [compound 360] | 1 | 7 | – | – |
| Cc1ccc(-n2nccn2)c(C(=O)N2CCC[C@H]2c2nc(-c3ccc(C)c(C)n3)no2)c1 [compound 63, {(S)-2-[3-(5,6-Dimethyl-pyridin-2-yl)-[1,2,4]oxadiazol-5-yl]-pyrrolidin-1-yl}-(5-methyl-2-[1,2,3]triazol-2-yl-phenyl)-methanone] | 361 | 1420 | – | – |
